# ChEMBL document CHEMBL1201862, “PubChem BioAssay data set” (2004)
# Activity calls are given as the source filed them.
# Experiments:
# [1] = molecular target: T1, Zinc finger protein mex-5 (Caenorhabditis elegans, UniProt Q9XUB2); test: MEX-5/TCR-2 RNA interaction inhibitors, dose response, biochemical, C. elegans, fluorescence polarization (AID 1960)
# T1 sequence (Q9XUB2 whole entry): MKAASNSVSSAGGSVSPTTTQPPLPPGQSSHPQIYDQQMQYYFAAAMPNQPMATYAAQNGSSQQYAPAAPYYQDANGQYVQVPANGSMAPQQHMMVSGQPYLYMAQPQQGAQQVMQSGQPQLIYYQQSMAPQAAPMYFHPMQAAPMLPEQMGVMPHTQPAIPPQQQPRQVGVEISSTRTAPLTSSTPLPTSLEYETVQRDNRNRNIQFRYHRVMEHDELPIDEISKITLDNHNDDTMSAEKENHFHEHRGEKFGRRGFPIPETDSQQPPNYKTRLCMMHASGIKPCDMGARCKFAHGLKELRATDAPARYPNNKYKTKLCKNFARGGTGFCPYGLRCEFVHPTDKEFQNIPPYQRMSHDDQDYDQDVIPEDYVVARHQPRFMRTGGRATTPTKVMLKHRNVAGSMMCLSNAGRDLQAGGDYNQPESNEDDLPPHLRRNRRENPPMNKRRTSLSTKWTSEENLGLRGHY
# [2] = Shn3 3'UTR reporter inhibitors, dose response, cell-based, Clone20 osteoblasts, firefly luciferase, cherry-picked (AID 624132); type: functional;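 also: firefly luciferase luminescence from reporter carrying the Shn3 3'UTR in osteoblasts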
# [3] = NIH-3T3 fibroblast cytotoxicity, dose response, cytotoxicity control, cell-based, fluorescence, Alamar Blue, secondary assay (AID 2327); type: functional;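 also: NIH-3T3 mouse fibroblasts cultured with fluconazole at 8 µg/mL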
# [4] = molecular target: T2, Apoptotic protease-activating factor 1 (Homo sapiens, UniProt O14727); type: functional
# T2 sequence (O14727 whole entry): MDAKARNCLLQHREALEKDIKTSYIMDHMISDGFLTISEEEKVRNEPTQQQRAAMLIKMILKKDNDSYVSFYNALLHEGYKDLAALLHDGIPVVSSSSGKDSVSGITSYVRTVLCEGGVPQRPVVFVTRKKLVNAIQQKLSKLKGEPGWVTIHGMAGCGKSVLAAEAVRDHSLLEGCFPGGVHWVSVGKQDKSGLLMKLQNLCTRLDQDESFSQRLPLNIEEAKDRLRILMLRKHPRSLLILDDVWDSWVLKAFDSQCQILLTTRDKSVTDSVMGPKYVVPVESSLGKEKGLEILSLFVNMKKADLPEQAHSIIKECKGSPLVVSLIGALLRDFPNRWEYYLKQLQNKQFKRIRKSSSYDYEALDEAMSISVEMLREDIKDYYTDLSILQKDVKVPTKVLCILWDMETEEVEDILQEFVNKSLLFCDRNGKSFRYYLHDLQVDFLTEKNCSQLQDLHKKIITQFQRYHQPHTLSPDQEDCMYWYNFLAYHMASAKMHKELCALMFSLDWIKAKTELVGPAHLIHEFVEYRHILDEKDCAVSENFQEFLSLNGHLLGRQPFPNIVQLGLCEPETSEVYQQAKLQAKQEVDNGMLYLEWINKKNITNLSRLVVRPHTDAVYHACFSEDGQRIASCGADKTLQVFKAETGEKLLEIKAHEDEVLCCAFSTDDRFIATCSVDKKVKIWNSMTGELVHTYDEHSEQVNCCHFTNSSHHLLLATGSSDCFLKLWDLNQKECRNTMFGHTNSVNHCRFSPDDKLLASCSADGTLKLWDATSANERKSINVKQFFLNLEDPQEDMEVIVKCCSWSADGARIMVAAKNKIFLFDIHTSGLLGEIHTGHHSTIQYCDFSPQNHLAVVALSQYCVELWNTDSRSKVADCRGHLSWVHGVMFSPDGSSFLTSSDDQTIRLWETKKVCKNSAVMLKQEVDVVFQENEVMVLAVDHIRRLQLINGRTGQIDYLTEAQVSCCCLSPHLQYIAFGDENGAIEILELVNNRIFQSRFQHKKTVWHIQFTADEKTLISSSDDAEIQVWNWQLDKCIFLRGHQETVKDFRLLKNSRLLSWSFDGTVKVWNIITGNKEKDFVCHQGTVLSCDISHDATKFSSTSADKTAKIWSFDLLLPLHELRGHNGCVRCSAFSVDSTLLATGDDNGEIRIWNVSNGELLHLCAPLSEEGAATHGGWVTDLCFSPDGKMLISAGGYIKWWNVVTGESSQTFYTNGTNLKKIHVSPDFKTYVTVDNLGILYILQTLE
# Caspase-7 [5] = molecular target: T3, Caspase-7 (Homo sapiens, UniProt P55210); test: human caspase-7 inhibitors, dose response, selectivity assay for caspase-6 inhibitor project, biochemical, DEVD-R110 fluorescence, cherry-pick (AID 743295)
# T3 sequence (P55210 whole entry): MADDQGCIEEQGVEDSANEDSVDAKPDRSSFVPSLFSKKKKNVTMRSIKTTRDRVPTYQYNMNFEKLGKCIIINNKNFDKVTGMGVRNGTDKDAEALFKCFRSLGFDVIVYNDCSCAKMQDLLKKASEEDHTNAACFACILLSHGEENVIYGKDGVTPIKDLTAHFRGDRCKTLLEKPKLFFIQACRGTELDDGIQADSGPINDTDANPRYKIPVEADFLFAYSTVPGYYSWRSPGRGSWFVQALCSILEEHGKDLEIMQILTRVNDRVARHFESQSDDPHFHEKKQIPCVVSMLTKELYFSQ
# [6] = C. albicans growth with fluconazole, confirmation, fluorescence, retest (AID 2467); type: functional, cell-based
# Caspase-6 = molecular target: T4, Caspase-6 (Homo sapiens, UniProt P55212); test: human caspase-6 inhibitors, dose response, biochemical, VEID-R110 fluorescence, cherry-pick (AID 720632)
# T4 sequence (P55212 whole entry): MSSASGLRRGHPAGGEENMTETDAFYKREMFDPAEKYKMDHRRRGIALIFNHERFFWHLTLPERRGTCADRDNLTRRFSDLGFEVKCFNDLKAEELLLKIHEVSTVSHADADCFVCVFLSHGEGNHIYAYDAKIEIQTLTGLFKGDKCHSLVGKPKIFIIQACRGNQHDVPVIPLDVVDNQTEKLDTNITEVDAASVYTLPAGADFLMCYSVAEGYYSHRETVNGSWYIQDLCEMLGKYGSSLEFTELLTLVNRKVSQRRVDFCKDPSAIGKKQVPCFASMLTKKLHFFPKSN
# Caspase-3 [7] = molecular target: T5, Caspase-3 (Homo sapiens, UniProt P42574); test: caspase-3 enzyme inhibitors, selectivity check, dose response, selectivity assay for caspase-6 allosteric inhibitor project, biochemical, fluorescence, cherry-picked samples (AID 743291)
# T5 sequence (P42574 whole entry): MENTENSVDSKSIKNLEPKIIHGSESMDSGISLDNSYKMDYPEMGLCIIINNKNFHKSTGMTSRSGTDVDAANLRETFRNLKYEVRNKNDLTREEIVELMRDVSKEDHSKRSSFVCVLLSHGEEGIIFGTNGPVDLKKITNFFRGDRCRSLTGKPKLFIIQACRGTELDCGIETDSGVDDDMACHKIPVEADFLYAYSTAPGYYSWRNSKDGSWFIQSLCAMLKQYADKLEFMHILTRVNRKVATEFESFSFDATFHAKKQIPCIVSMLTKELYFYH
# [8] = control 3'UTR Renilla luciferase suppression, dose response, counter-screen for Shn3 inhibitor project, cell-based, Clone20-Shn3RL, cherry-picked (AID 624133); type: functional
# [9] = HepG2 cell cytotoxicity, dose response, cytotoxicity control for Shn3 inhibitor project, CellTiter-Glo, cherry-picked (AID 624134); type: functional, cell-based
# [10] = molecular target: T6, RNA-binding protein pos-1 (Caenorhabditis elegans, UniProt G5EF15); test: inhibitors of POS-1/mex-3 RNA binding, dose response, biochemical, fluorescence polarization (AID 1964);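 also: purified POS-1 fused to maltose binding protein made in E. coli; potency of compounds blocking POS-1 binding to fluorescent RNA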
# T6 sequence (G5EF15 whole entry): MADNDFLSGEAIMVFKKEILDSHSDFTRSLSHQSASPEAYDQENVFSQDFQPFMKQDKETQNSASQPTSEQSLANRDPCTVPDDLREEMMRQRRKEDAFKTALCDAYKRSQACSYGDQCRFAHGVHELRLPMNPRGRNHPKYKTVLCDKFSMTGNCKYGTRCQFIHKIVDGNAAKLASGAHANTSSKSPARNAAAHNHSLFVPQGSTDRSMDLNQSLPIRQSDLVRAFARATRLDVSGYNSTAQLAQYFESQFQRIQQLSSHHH
# [11] = molecular target: G-protein coupled receptor 35 (Homo sapiens, UniProt Q9HC97); test: GPR35 antagonists blocking zaprinast-driven arrestin recruitment, primary screen, imaging, U2OS, beta-arrestin-GFP, zaprinast agonist (AID 2058); type: functional;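 also: antagonist potency meaning inhibition of agonist-induced arrestin redistribution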
# Caspase-8 = Caspase-8 (Homo sapiens, UniProt Q14790); test: caspase-8 inhibition counter-screen, dose response, selectivity assay for caspase-6 inhibitor project, biochemical, Z-IETD-R110 fluorescence, cherry-picked samples (AID 743294)
# Caspase-7 [12] = molecular target: T3, Caspase-7; test: procaspase-7 activators, dose response, dual procaspase-3/-7 activator project, biochemical, absorbance, human (AID 504330)
# [13] = inhibitors of HIV Env-driven cell fusion, dose response, cherry-pick (AID 652057); type: functional, cell-based
# Caspase-3 [14] = molecular target: T5, Caspase-3; test: procaspase-3 activation potency of dual hits, dose response, counter-screen for dual procaspase-3/7 activator project, biochemical, absorbance, PC-3 D3A mutant (AID 504328)
# Cytochrome P450 2D6 = Cytochrome P450 2D6 (Homo sapiens, UniProt P10635);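 also: CYP2D6 member of a cytochrome P450 panel assay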
# Protein Rev = Protein Rev (Human immunodeficiency virus type 1 group M subtype B (isolate HXB2)(HIV-1), UniProt P04618); test: inhibitors of Rev binding to RRE RNA, dose response, biochemical, fluorescence polarization, HIV-1 (AID 434976); design: species or system Human immunodeficiency virus 1
# [15] = molecular target: Female germline-specific tumor suppressor gld-1 (Caenorhabditis elegans, UniProt Q17339); test: inhibitors of GLD-1 binding to TGE RNA, dose response, biochemical, fluorescence polarization, C. elegans (AID 2802);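 also: fluorescence polarization of labeled TGE RNA bound by purified gld-1 protein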
# 14-3-3 protein gamma = 14-3-3 protein gamma (Homo sapiens, UniProt P61981); test: modulators of 14-3-3 gamma client binding – dose response (AID 711); type: functional
# [16] = molecular target: T7, Long-chain-fatty-acid--AMP ligase FadD28 (Mycobacterium tuberculosis, UniProt P9WQ59); test: Fluorescence polarization aasay to screen for inhibitors that compete for the binding of FadD28 to a bisubstrate Measured in Biochemical System Using Plate Reader - 2147-01_Inhibitor_Dose_CherryPick_Activity.; type: functional, Mycobacterium tuberculosis H37Rv
# T7 sequence (P9WQ59 whole entry): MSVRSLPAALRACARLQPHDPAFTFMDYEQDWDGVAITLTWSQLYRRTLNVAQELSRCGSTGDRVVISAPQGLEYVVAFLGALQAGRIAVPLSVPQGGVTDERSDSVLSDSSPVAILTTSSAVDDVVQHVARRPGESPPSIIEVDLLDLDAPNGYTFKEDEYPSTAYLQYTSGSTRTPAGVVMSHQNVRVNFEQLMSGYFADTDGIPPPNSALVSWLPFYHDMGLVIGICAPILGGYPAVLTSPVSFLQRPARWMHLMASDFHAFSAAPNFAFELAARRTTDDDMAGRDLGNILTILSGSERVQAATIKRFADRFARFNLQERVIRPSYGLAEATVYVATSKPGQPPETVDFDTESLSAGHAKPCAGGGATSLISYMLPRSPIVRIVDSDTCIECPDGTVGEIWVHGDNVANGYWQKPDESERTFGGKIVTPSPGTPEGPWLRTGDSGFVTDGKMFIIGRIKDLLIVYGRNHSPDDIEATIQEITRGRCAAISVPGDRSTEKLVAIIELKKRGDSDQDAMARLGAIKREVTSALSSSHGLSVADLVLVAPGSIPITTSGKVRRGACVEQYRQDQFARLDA
# Genome polyprotein = Genome polyprotein (dengue virus type 2, UniProt P29990); test: Dengue-2 NS5 methyltransferase inhibitors, primary screen, biochemical, confirmation dose response (AID 588689); type: functional
# [17] = molecular target: Potassium voltage-gated channel subfamily KQT member 2 (Rattus norvegicus, UniProt O88943); test: retigabine-insensitive KCNQ2 potentiators, concentration-response, dose response, cell-based, retigabine-insensitive compounds (AID 2654); type: functional
# Potassium voltage-gated channel subfamily KQT member 2, sequence (O88943 whole entry): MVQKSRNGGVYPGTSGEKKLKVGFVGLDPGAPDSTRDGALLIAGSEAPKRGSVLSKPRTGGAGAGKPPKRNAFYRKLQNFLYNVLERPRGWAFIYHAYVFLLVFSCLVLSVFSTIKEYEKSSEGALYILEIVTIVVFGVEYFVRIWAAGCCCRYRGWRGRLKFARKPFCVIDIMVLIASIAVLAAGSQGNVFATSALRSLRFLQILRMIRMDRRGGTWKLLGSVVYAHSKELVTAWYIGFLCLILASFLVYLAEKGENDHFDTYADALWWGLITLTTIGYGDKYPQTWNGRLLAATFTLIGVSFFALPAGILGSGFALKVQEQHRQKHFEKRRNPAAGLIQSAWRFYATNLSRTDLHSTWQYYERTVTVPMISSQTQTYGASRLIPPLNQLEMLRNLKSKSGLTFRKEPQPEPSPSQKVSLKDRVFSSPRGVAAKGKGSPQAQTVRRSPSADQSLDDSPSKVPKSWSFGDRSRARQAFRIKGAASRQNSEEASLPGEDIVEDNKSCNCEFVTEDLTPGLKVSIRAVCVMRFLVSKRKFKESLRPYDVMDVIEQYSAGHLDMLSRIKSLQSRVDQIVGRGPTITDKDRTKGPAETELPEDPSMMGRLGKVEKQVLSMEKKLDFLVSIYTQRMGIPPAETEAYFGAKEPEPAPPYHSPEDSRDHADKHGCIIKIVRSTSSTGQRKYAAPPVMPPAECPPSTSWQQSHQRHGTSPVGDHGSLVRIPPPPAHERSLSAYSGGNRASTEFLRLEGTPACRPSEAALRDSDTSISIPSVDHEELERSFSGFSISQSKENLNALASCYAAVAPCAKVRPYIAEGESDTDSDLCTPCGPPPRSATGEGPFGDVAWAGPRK
# Female germline-specific tumor suppressor gld-1, sequence (Q17339 whole entry): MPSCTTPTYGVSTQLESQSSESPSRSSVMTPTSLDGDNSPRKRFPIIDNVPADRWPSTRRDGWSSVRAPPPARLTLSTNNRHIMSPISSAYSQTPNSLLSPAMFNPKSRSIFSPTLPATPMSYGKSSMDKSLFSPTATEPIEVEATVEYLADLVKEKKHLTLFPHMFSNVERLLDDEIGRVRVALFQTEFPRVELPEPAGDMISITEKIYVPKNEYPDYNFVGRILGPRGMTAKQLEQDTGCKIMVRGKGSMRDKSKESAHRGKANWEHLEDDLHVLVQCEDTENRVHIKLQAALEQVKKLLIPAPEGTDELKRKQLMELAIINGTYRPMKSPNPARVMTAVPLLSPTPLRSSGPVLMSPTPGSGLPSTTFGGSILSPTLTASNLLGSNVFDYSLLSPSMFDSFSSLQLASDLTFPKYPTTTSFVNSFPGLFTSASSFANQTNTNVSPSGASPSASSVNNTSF
# 14-3-3 protein gamma, sequence (P61981 whole entry): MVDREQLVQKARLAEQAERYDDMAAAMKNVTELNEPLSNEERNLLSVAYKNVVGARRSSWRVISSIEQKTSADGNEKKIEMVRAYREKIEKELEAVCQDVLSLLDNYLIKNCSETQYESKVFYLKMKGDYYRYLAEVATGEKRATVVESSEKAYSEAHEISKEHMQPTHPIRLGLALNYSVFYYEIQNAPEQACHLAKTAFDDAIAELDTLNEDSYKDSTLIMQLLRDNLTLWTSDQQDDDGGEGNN
# Protein Rev, sequence (P04618 whole entry): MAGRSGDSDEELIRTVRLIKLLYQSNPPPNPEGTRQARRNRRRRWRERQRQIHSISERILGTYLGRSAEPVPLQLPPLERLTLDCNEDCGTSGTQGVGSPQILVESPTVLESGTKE
# Caspase-8, sequence (Q14790 217-374 limits assumed): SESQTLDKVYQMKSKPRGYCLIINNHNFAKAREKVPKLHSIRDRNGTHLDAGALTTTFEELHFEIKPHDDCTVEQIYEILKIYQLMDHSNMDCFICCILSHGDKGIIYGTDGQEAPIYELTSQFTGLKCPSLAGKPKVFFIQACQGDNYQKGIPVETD
# Caspase-8, sequence (Q14790 385-479 limits assumed): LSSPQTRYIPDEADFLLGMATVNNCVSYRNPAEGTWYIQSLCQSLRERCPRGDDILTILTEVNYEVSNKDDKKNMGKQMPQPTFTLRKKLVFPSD
# Genome polyprotein, sequence (P29990 2492-3391 limits assumed): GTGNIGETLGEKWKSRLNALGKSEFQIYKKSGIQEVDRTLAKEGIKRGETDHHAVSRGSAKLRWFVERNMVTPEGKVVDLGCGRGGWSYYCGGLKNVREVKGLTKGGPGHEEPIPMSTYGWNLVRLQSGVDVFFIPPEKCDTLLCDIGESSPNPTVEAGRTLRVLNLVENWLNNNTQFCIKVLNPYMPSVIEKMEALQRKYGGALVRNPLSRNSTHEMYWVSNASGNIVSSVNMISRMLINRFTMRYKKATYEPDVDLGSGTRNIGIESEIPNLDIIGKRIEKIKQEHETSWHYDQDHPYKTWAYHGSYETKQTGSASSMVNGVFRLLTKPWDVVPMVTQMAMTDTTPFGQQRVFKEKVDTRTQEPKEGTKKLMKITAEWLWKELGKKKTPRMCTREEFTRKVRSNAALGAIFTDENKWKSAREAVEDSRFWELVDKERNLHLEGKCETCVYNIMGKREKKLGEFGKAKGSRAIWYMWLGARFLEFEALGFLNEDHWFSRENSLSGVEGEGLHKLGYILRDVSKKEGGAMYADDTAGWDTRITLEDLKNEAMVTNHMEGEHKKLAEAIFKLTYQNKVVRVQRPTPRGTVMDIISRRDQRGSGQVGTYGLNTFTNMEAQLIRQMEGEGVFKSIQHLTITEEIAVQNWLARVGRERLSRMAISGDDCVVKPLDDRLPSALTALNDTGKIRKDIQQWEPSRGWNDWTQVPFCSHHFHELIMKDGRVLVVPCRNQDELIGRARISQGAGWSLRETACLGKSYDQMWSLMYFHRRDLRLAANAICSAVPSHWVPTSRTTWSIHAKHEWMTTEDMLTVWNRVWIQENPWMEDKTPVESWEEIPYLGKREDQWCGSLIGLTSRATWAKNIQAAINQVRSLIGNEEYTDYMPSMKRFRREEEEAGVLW
# G-protein coupled receptor 35, sequence (Q9HC97 whole entry): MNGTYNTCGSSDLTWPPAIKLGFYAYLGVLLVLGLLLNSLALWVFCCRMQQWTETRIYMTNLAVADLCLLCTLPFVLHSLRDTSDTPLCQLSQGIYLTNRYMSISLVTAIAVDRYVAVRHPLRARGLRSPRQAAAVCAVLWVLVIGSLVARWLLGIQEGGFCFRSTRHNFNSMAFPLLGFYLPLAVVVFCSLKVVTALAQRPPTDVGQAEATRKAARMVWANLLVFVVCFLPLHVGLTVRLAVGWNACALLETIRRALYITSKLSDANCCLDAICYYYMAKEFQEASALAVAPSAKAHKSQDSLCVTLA
# Cytochrome P450 2D6, sequence (P10635 whole entry): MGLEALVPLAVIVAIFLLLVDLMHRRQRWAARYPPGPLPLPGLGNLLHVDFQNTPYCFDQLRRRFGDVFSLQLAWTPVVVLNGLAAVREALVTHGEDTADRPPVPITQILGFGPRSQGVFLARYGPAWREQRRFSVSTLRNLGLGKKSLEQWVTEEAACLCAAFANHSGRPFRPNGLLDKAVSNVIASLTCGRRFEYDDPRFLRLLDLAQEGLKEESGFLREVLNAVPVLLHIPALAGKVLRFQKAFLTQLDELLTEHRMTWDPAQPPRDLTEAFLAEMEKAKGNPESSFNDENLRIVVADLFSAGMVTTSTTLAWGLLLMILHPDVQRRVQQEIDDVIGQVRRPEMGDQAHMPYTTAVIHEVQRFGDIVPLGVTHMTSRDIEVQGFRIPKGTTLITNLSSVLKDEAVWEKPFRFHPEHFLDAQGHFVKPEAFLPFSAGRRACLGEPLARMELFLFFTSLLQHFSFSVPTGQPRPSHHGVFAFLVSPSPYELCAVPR
structure (smiles),measurement,setting,value
CCOc1ccc2nc3cc(NCc4ccc(OC)cc4)ccc3c(N)c2c1,EC50,[1],3.94 µM (active)
same,AC50,[2],6.69 µM (active)
same,EC50,[3],> 150 µM (inconclusive)
same,IC50,[4],23.5 µM (active)
same,AC50,Caspase-7 [5],9.75 µM (active)
same,EC50,[6],2.76 µM (active)
same,AC50,Caspase-6,4.3 µM (active)
same,AC50,Caspase-3 [7],21.2 µM (active)
same,AC50,[8],23 µM (active)
same,AC50,[9],16.5 µM (active)
same,EC50,[10],4.47 µM (active)
same,IC50,[11],15.3 µM (inactive)
same,AC50,Caspase-8,25.9 µM (active)
COc1ccc(Nc2ncc(C(=O)N3CCN(c4ccc(F)cc4)CC3)c3ccccc23)cc1,EC50,Caspase-7 [12],> 85.2 µM (inactive)
same,AC50,[13],49 µM (active)
same,EC50,Caspase-3 [14],> 85.2 µM (inactive)
same,AC50,Cytochrome P450 2D6,31.6 µM (inconclusive)
CCn1c(CSc2nnc3ccccn23)nc2cc(C(=O)O)ccc21,IC50,Protein Rev,> 75.4 µM (not active)
same,IC50,[15],11.2 µM (inactive)
same,IC50,14-3-3 protein gamma,0.853 µM (active)
same,AC50,[16],50.1 µM (active)
same,IC50,Genome polyprotein,23.2 µM (active)
Cc1ccc(NC(=O)Nc2cccnc2)cc1,EC50,[17],128 µM (active)
